Test [1] can be described thus: liquid-liquid extraction from aqueous nitric solution, distribution coefficient D. It is filed as physicochemical. To be noted: for D(distribution coefficient) 152-Eu: pH ≈0, 1 hour contacting. Here is the method: In these examples, an evaluation takes place of the effectiveness of the calixarenes of table 1 for extracting plutonium, neptunium and americium, as well as europium (simulating all the trivalent lanthanides) of an aqueous solution containing one of these elements. The composition of the aqueous solution is as follows:
[…] Contacting takes place in a 20 ml polypropylene tube, which undergoes stirring. After 1 hour of contacting, the two phases are allowed to settle and the activity of each phase is counted by liquid scintillation or α and γ spectrometries.
The distribution coefficient D is then determined and this corresponds to the ratio of the activity of actinide in the organic phase to the activity of actinide in the aqueous phase.

Test [2] is described as follows: supported liquid membrane transport into aqueous reextraction solution. Type of test: physicochemical. The settings on record: for Percentage transported in 6 h. 237 Np / Percentage transported in 6 h. 239 Pu / Percentage transported in 6 h. 241 Am / Percentage of 239Pu transported in 24 h / Percentage transported in 24 h. 237 Np / Percentage transported in 24 h. 241 Am / Percentage transported in 6 h. 152 Eu / Percentage transported in 24 h. 152 Eu: supported liquid membrane, 0.001 or 0.0001M calixarene (CMPO 10^-2 M); for Permeability (cm/h) 237 Np / Permeability (cm/h) 239 Pu / Permeability (cm/h) 241 Am / Permeability (cm/h) 152 Eu: CELGARD 2500 membrane, nitrophenylhexyl ether with 0.001 or 0.0001M calixarene (CMPO 10^-2 M), reextraction 1 mole/l methylene diphosphonic acid. The source says: These examples use the second embodiment of the process according to the invention for extracting europium, neptunium, plutonium and americium from aqueous solutions having the same compositions as those used in examples 7 to 16. These examples use the device shown in the attached drawing.
This device comprises an enclosure 1 subdivided into two compartents 3 and 5 by a supported liquid membrane 7, constituted by a microporous polypropylene membrane marketed under the name CELGARD 2500 and having the following characteristics:
membrane thickness: 0.025 mm.
The pores of this membrane are filled with an organic phase constituted by nitrophenylhexyl ether incorporating 0.001 or 0.0001M of calixarene.
Compartment 3 contains 50 ml of aqueous solution (NaNO3 :4 mole/l, HNO3 : 1mole/l with Eu, Np, Pu, Am); and compartment 5 contains 50ml of an aqueous reextraction solution constituted by an aqueous solution with 1 mole/l of methylene diphosphonic acid.
The two solutions are stirred and the initial activity of the solution of compartment 3 is determined, followed by the activity of the aqueous reextraction solution of compartment 5 by liquid α spectrometry and the operation is continued for one day. From it is deduced the percentage of neptunium, plutonium, americium and europium recovered in the aqueous reextraction solution after 6 and 24 h.
The calixarenes used, the permeability (in cm h^-1) of the membrane to Np and Pu, as well as the %, at the end of 6 and 24 h,of Eu, Am, Np and Pu recovered are given in table 3.

Where [3] appears, read: CMPO 0.01M in nitrophenyl hexyl ether, comparative.
Where [4] appears, read: calixarene 0.001M in nitrophenyloctylether, aqueous HNO3, NaNO3 4 mole/l, 1 hour, * = precipitation.
Setting [5] is: calixarene 0.001M in nitrophenyloctylether, aqueous HNO3, NaNO3 4 mole/l.
Where [6] appears, read: calixarene 0.0001M in nitrophenyloctylether, aqueous HNO3, NaNO3 4 mole/l, 1 hour, * = precipitation.

Results on eight molecules are retold here after patent publication US5866087A, “Calixarene derivatives, their preparation process and their use for extracting actinides and lanthanides” (priority 1995, dated 1999).

Each structure is given as a SMILES string.

Regarding `CCCCCCCCP(=O)(CC(=O)N(CC(C)C)CC(C)C)c1ccccc1` (stereo not shown) [CMPO, reference compound], in test [1] (setting [3]), the “D(distribution coefficient) 237-Np” value was 0.85, the “D(distribution coefficient) 239-Pu” value came out at 22 and the “D(distribution coefficient) 241-Am” value is given as 1.2. In addition, in test [2], the “Percentage transported in 6 h. 237 Np” value amounted to 50%, the “Percentage transported in 6 h. 239 Pu” value was 99%, the “Percentage transported in 6 h. 241 Am” value was 9.8% and the “Percentage of 239Pu transported in 24 h” value was found to be 100%. Moreover, in test [2], the “Percentage transported in 24 h. 237 Np” value turned out to be 68%, the “Percentage transported in 24 h. 241 Am” value is recorded as 45%, the “Permeability (cm/h) 237 Np” value is 0.74 cm/h and the “Permeability (cm/h) 239 Pu” value was 3.44 cm/h. In addition, in test [2], the “Permeability (cm/h) 241 Am” value is recorded as 0.17 cm/h.

Consider `CCCCCCCCCCCCOc1c2cc(NC(=O)CP(=O)(c3ccccc3)c3ccccc3)cc1Cc1cc(NC(=O)CP(=O)(c3ccccc3)c3ccccc3)cc(c1OCCCCCCCCCCCC)Cc1cc(NC(=O)CP(=O)(c3ccccc3)c3ccccc3)cc(c1OCCCCCCCCCCCC)Cc1cc(NC(=O)CP(=O)(c3ccccc3)c3ccccc3)cc(c1OCCCCCCCCCCCC)C2` [Compound 1, 25, 26, 27, 28 tetradodecyloxy-tetra-5, 11, 17, 23-(diphenylphosphinoxidoacetamido) calix[4]arene], for which, in test [1] (setting [4]), the “D(distribution coefficient) 237-Np” value came to 4, the “D(distribution coefficient) 239-Pu” value was above 100 and the “D(distribution coefficient) 241-Am” value is on record as above 100. In test [2], the “Percentage transported in 6 h. 152 Eu” value was determined as 95%, the “Percentage transported in 6 h. 237 Np” value was 56%, the “Percentage transported in 6 h. 239 Pu” value is reported as 84% and the “Percentage transported in 6 h. 241 Am” value turned out to be 97%. For the same molecule, in test [2], the “Percentage of 239Pu transported in 24 h” value stood at 85%, the “Percentage transported in 24 h. 152 Eu” value amounted to 100%, the “Percentage transported in 24 h. 237 Np” value is on record as 66% and the “Percentage transported in 24 h. 241 Am” value worked out at 100%. Further, in test [2], the “Permeability (cm/h) 152 Eu” value is 2.75 cm/h, the “Permeability (cm/h) 237 Np” value was 1.35 cm/h, the “Permeability (cm/h) 239 Pu” value was 3.4 cm/h and the “Permeability (cm/h) 241 Am” value came out at 4.9 cm/h.

Turning to `CCCCCCCCCCOc1c2cc(NC(=O)CP(=O)(c3ccccc3)c3ccccc3)cc1Cc1cc(NC(=O)CP(=O)(c3ccccc3)c3ccccc3)cc(c1OCCCCCCCCCC)Cc1cc(NC(=O)CP(=O)(c3ccccc3)c3ccccc3)cc(c1OCCCCCCCCCC)Cc1cc(NC(=O)CP(=O)(c3ccccc3)c3ccccc3)cc(c1OCCCCCCCCCC)C2` [Compound 2, tetra-O-decyl tetrakis (diphenyl phosphinoxidoacetamido)calix[4]arene], the “D(distribution coefficient) 152-Eu” value in test [1] (setting [5]) is listed as above 100. In test [1] (setting [4]), the “D(distribution coefficient) 237-Np” value was found to be 2, the “D(distribution coefficient) 239-Pu” value is reported as 90 and the “D(distribution coefficient) 241-Am” value was 100. Also, in test [2], the “Percentage transported in 6 h. 237 Np” value is listed as 73%, the “Percentage transported in 6 h. 239 Pu” value amounted to 82%, the “Percentage transported in 6 h. 241 Am” value amounted to 95.5% and the “Percentage of 239Pu transported in 24 h” value is 83%. Besides, in test [2], the “Percentage transported in 24 h. 237 Np” value came to 80%, the “Percentage transported in 24 h. 241 Am” value is 100%, the “Permeability (cm/h) 237 Np” value was 3 cm/h and the “Permeability (cm/h) 239 Pu” value is given as 3.6 cm/h. Further, in test [2], the “Permeability (cm/h) 241 Am” value is 5 cm/h.

Consider `CCCCCCCCCCCCCCOc1c2cc(NC(=O)CP(=O)(c3ccccc3)c3ccccc3)cc1Cc1cc(NC(=O)CP(=O)(c3ccccc3)c3ccccc3)cc(c1OCCCCCCCCCCCCCC)Cc1cc(NC(=O)CP(=O)(c3ccccc3)c3ccccc3)cc(c1OCCCCCCCCCCCCCC)Cc1cc(NC(=O)CP(=O)(c3ccccc3)c3ccccc3)cc(c1OCCCCCCCCCCCCCC)C2` [Compound 3, tetra-O-tetradecyl tetrakis (diphenyl-phosphinoxidoacetamido)calix[4]arene], for which the “D(distribution coefficient) 152-Eu” value in test [1] (setting [5]) was above 100. For the same molecule, in test [1] (setting [4]), the “D(distribution coefficient) 237-Np” value is on record as 1.8, the “D(distribution coefficient) 239-Pu” value turned out to be 90 and the “D(distribution coefficient) 241-Am” value is on record as above 100. Also, in test [2], the “Percentage transported in 6 h. 152 Eu” value stood at 90%, the “Percentage transported in 6 h. 237 Np” value turned out to be 54%, the “Percentage transported in 6 h. 239 Pu” value is 84% and the “Percentage transported in 6 h. 241 Am” value is recorded as 98%. Moreover, in test [2], the “Percentage of 239Pu transported in 24 h” value is given as 88%, the “Percentage transported in 24 h. 152 Eu” value is on record as 98%, the “Percentage transported in 24 h. 237 Np” value came to 62% and the “Percentage transported in 24 h. 241 Am” value amounted to 100%. Moreover, in test [2], the “Permeability (cm/h) 152 Eu” value worked out at 2.8 cm/h, the “Permeability (cm/h) 237 Np” value is on record as 1.3 cm/h, the “Permeability (cm/h) 239 Pu” value is given as 2.95 cm/h and the “Permeability (cm/h) 241 Am” value turned out to be 5.3 cm/h.

In the case of `CCCCCCCCCCCCCCCCOc1c2cc(NC(=O)CP(=O)(c3ccccc3)c3ccccc3)cc1Cc1cc(NC(=O)CP(=O)(c3ccccc3)c3ccccc3)cc(c1OCCCCCCCCCCCCCCCC)Cc1cc(NC(=O)CP(=O)(c3ccccc3)c3ccccc3)cc(c1OCCCCCCCCCCCCCCCC)Cc1cc(NC(=O)CP(=O)(c3ccccc3)c3ccccc3)cc(c1OCCCCCCCCCCCCCCCC)C2` [Compound 4, tetra-O-hexadecyl tetrakis(diphenyl-phosphinaxidoacetamido)calix[4]arene], in test [1] (setting [6]), the “D(distribution coefficient) 237-Np” value is recorded as 1.1, the “D(distribution coefficient) 239-Pu” value is listed as 27 and the “D(distribution coefficient) 241-Am” value stood at 27. In addition, in test [2], the “Percentage transported in 6 h. 237 Np” value was 21%, the “Percentage transported in 6 h. 239 Pu” value amounted to 54%, the “Percentage transported in 6 h. 241 Am” value was 3% and the “Permeability (cm/h) 237 Np” value worked out at 0.46 cm/h. Also, in test [2], the “Permeability (cm/h) 239 Pu” value is 1.4 cm/h and the “Permeability (cm/h) 241 Am” value worked out at 0.08 cm/h.

Turning to `CCCCCCCCCCCCCCCCCCOc1c2cc(NC(=O)CP(=O)(c3ccccc3)c3ccccc3)cc1Cc1cc(NC(=O)CP(=O)(c3ccccc3)c3ccccc3)cc(c1OCCCCCCCCCCCCCCCCCC)Cc1cc(NC(=O)CP(=O)(c3ccccc3)c3ccccc3)cc(c1OCCCCCCCCCCCCCCCCCC)Cc1cc(NC(=O)CP(=O)(c3ccccc3)c3ccccc3)cc(c1OCCCCCCCCCCCCCCCCCC)C2` [Compound 5], in test [1] (setting [6]), the “D(distribution coefficient) 237-Np” value is given as 1.5, the “D(distribution coefficient) 239-Pu” value is recorded as 24 and the “D(distribution coefficient) 241-Am” value is 21.

With `CCCCCCCCCCOc1c2cc(NC(=O)CP(=O)(c3ccccc3)c3ccccc3)cc1Cc1cc(NC(=O)CP(=O)(c3ccccc3)c3ccccc3)cc(c1OC)Cc1cc(NC(=O)CP(=O)(c3ccccc3)c3ccccc3)cc(c1OCCCCCCCCCC)Cc1cc(NC(=O)CP(=O)(c3ccccc3)c3ccccc3)cc(c1OC)C2` [Compound 6, 25, 27 didecyloxy-26,28-dimethoxy-5,11, 17,23-(diphenylphosphinoxido-acetamido) calix[4]arene], in test [1] (setting [5]), the “D(distribution coefficient) 152-Eu” value is listed as above 100. Further, in test [1] (setting [4]), the “D(distribution coefficient) 237-Np” value worked out at 3, the “D(distribution coefficient) 239-Pu” value was 130 and the “D(distribution coefficient) 241-Am” value is 240. In addition, in test [2], the “Percentage transported in 6 h. 237 Np” value is recorded as 49.4%, the “Percentage transported in 6 h. 239 Pu” value came to 97.1%, the “Percentage transported in 6 h. 241 Am” value is 94.2% and the “Percentage of 239Pu transported in 24 h” value was 100%. In addition, in test [2], the “Percentage transported in 24 h. 237 Np” value came out at 68.3%, the “Percentage transported in 24 h. 241 Am” value stood at 94.9%, the “Permeability (cm/h) 237 Np” value stood at 1.6 cm/h and the “Permeability (cm/h) 239 Pu” value is listed as 6.4 cm/h. Moreover, the “Permeability (cm/h) 241 Am” value in test [2] is listed as 2.9 cm/h.

For the molecule `CCCCCCCCCCCCCCCCCCOc1c2cc(NC(=O)CP(=O)(c3ccccc3)c3ccccc3)cc1Cc1cc(NC(=O)CP(=O)(c3ccccc3)c3ccccc3)cc(c1OC)Cc1cc(NC(=O)CP(=O)(c3ccccc3)c3ccccc3)cc(c1OCCCCCCCCCCCCCCCCCC)Cc1cc(NC(=O)CP(=O)(c3ccccc3)c3ccccc3)cc(c1OC)C2` [Compound 7], the “D(distribution coefficient) 152-Eu” value in test [1] (setting [5]) is listed as above 100. For the same molecule, in test [1] (setting [4]), the “D(distribution coefficient) 237-Np” value is on record as 3, the “D(distribution coefficient) 239-Pu” value is 170 and the “D(distribution coefficient) 241-Am” value is 250. Besides, in test [2], the “Percentage transported in 6 h. 237 Np” value worked out at 42.7%, the “Percentage transported in 6 h. 239 Pu” value is on record as 99.7%, the “Percentage transported in 6 h. 241 Am” value was found to be 92.6% and the “Percentage of 239Pu transported in 24 h” value came out at 100%. Also, in test [2], the “Percentage transported in 24 h. 237 Np” value was 59.4%, the “Percentage transported in 24 h. 241 Am” value worked out at 99.3%, the “Permeability (cm/h) 237 Np” value is 1.3 cm/h and the “Permeability (cm/h) 239 Pu” value stood at 7 cm/h. Moreover, the “Permeability (cm/h) 241 Am” value in test [2] is recorded as 3.2 cm/h.
